Laboratory results as given in US9099654B2, “Benzofluorene compound, emission materials and organic electroluminescent device” (JNC Corporation, priority 2006, dated 2015).

Experiment: Solubility in solvents at 25° C. (Table 1)
Format: physicochemical

Row | Solubility (25° C.) g/100 ml (ethyl acetate) | Solubility (25° C.) g/100 ml (toluene) | SMILES | solubility in the solvents compared with compound (2) (ethyl acetate and toluene, comparison in words)
1 | 0.2 g/100 ml | 0.9 g/100 ml | c1ccc(C2(c3ccccc3)c3cc(-c4ccc5ccccc5c4)ccc3-c3ccc4cc(-c5ccc6ccccc6c5)ccc4c32)cc1 [Compound (2), 3,9-dinaphthalene-2-yl-11,11-diphenyl-11H-benzo[a]fluorene, reference compound] | 
2 | 1 g/100 ml | 8 g/100 ml | c1ccc(C2(c3ccccc3)c3cc(-c4ccc5ccccc5c4)ccc3-c3c2cc(-c2ccc4ccccc4c2)c2ccccc32)cc1 [Compound (1-13)] | apparently more excellent in solubility in the solvents than the compound (2)
